Literature values as cited in patent US20160318862A1, “SYNTHESIS OF DELTA 12-PGJ3 AND RELATED COMPOUNDS” (WILLIAM MARSH RICE UNIVERSITY, priority 2013, published 2016).
Where two headings read alike, the source gives them in different places. Each block holds one compound with its values, some of them ahead of it.

Tests used:
[1] = target: T1, peroxisome proliferator-activated receptor γ (PPARγ) (Homo sapiens, UniProt P37231)
T1 sequence (P37231 1-505): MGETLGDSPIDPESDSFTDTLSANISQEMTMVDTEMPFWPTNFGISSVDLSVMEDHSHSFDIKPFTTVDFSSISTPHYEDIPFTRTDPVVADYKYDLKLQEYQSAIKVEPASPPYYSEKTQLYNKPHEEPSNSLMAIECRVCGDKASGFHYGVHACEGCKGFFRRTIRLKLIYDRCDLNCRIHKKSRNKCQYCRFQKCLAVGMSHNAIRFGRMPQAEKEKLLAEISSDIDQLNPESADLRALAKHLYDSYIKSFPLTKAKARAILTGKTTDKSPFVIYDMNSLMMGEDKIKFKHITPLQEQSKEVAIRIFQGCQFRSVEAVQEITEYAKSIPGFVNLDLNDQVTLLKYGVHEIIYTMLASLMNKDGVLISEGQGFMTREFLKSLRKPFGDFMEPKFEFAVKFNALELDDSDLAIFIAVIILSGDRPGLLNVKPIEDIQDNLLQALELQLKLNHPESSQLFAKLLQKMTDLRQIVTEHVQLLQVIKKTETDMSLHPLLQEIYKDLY

[2] = test system: normal hematopoietic stem cells
[3] = test system: NF-κB-mediated transcription
[4] = test system: tumor cells; settings: incorporating into tumor cells and transferring into nuclei
[5] = test system: gadd45 promoter
[6] = test system: topoisomerase
[7] = test system: mice infected with Friend erythroleukemia virus or those expressing chronic myelogenous leukemia (CML) oncoprotein BCR-abl in the hematopoietic stem cell (HSC) …
[8] = test system: AML LSCs; settings: human AML leukemia samples; reported in U.S. Patent Publication 2013/0005737
[9] = test system: leukemia stem cells (LSCs)
[10] = test system: p53; settings: LSCs and leukemia cells
[11] = test system: AML LSCs; settings: murine models of AML; reported in U.S. Patent Publication 2013/0005737

SMILES: CCCCC/C=C/C=C1/C(=O)C=C[C@@H]1C/C=C\CCCC(=O)O [15-deoxy-Δ^12,14-PGJ2]
- ligand potency for PPARγ [1]: most potent natural ligand reported to date

- effect on normal hematopoietic stem cells or the differentiation of hematopoietic progenitors [2]: no effect
SMILES: CC/C=C\C[C@H](O)/C=C/[C@H]1C(=O)C=C[C@@H]1C/C=C\CCCC(=O)O [PGJ3]

SMILES: O=C(O)CCCC=CCC1C=CC(=O)C1=CCC(O)CC=CCC(F)(F)F (stereo not shown) [compound 3, ω-Trifluoromethyl-Δ^12-PGJ3]
- NF-κB-mediated transcription [3]: Inhibition of the NF-κB-mediated transcription

- topoisomerase activity [6]: inhibiting topoisomerase
SMILES: CCCCC[C@H](O)C/C=C1/C(=O)C=C[C@@H]1C/C=C\CCCC(=O)O [Δ^12-PGJ2]
- antitumor effects [4]: strong antitumor effects
- gadd45 promoter activity [5]: activating the gadd45 promoter independently of p53

SMILES: CC/C=C\C[C@H](O)C/C=C1/C(=O)C=C[C@@H]1C/C=C\CCCC(=O)O [Δ^12-PGJ3]
- hematological parameters, splenic histology and survival ([7]; intraperitoneal administration): completely restored normal hematological parameters, splenic histology, and enhanced the survival
- development of leukemia ([7]; two murine models of leukemia): alleviates the development of leukemia
- targeting of AML LSCs by inducing apoptosis [8]: effectively target AML LSCs by inducing apoptosis
- eradication of LSCs ([9]; in vivo, donor cells from treated mice unable to cause leukemia in secondary transplants): completely eradicated LSCs in vivo
- apoptosis of leukemia stem cells ([9]; mice spleen and bone marrow): selectively targets and induces apoptosis of leukemia stem cells
- expression of p53 [10]: inducing the expression of p53
- targeting of AML LSCs by inducing apoptosis [11]: effectively target AML LSCs by inducing apoptosis
